Consider 2 molecules from publication PMC13336041, “Streptavidins Coordinate Biotin Sequestration and Self‐Resistance Within a Biotin‐Pathway Antibiotic Network” (Advanced Science, 2026).

In test [1] the target is BioA derived from S. lydicus (SlBioA). The test is described as follows: BioA-BioD coupled enzyme assay with KAPA as substrate, LC-MS readout. In kind it is biochemical, Streptomyces lydicus.
The next test addresses BioA (EcBioA) (Escherichia coli, UniProt P12995). The test is described as follows: BioA-BioD coupled enzyme assay with KAPA as substrate, LC-MS readout of desthiobiotin (IC50 […]). The format is biochemical.
The target in test [2] is streptavidin 2 (Sav2), residues 45-169 (S. avidinii). Put plainly: not stated; in solution; method not given.

For orientation: IC50 means the point on the concentration scale where inhibition reaches its midpoint. A lower IC50 goes with higher potency. The Ki is a measure of affinity in units of concentration, obtained from inhibition or displacement. Lower therefore signals higher affinity. What is called stoichiometry N is the number of molecules, sites or subunits per partner or assembly.

Sequence of BioA (EcBioA) (P12995 whole entry, the tested form may be a part): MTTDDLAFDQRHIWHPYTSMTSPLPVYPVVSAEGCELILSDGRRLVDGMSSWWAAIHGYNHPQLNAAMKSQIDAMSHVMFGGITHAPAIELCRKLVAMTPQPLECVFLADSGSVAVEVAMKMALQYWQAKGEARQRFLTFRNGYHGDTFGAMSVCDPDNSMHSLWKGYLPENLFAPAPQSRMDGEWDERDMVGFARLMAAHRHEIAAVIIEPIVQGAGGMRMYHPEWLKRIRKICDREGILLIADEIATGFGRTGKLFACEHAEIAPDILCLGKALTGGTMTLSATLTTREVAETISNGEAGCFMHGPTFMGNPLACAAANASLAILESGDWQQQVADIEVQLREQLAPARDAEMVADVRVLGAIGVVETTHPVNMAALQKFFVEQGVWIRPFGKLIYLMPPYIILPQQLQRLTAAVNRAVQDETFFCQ

In turn, `C[C@H](N)C(=O)CCCC[C@@H](C)C(=O)O` [compound 5, α-methyl-KAPA] registered an IC50 in test [1] of 6.5 µM. Also, the affinity on BioA (EcBioA) corresponds to a Ki of 14.9 µM.

In the case of “streptavidin 2 (Sav2), residues 45-169 (domain or fragment)”, the stoichiometry N in test [2] worked out at 4.
